Measurements: US20080153872A1, “Bis-(Coumarin) Compounds With Anti-Inflammatory Activity” (priority 2005, published 2008)

Legend:
TxA2 receptor = target: T1, TxA2 receptor (Homo sapiens, UniProt P21731); assay: Human thromboxane A2, TxA2, assay (SQ-29548 competition); format: binding; conditions: 10 μM concentration; HEK-293
T1 construct: expressed in transfected cells; host or cells: HEK-293
T1 sequence (P21731 1-343): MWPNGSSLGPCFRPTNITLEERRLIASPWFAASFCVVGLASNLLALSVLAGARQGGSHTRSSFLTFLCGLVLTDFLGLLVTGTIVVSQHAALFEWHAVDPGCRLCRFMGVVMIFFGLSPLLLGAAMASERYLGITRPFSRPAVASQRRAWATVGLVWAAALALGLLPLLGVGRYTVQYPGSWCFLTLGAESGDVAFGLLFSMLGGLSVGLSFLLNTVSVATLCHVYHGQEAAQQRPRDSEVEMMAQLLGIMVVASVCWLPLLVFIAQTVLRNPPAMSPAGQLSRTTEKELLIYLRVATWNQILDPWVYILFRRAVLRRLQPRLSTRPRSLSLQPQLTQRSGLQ
Experimental: (§1) All compounds were dissolved in dimethyl sulfoxide (DMSO). Final concentration of the DMSO in all tests was 1% (v/v). Inhibition in all tests is considered preferred if it exceeds 50% at 10 μM concentration (or less).
TxA2 receptor is expressed in HEK-293 cell line. Compounds and radiolabelled competitor SQ-29548 are incubated for 30 minutes at 25° C. Level of bound SQ-29548 is measured by scintillation counting, and competition is calculated from the total amount of the bound SQ-29548. […] is an unstable lipid mediator involved in blood clotting, and immune processes.

CysLT1 receptor = target: T2, CysLT1 receptor (Homo sapiens, UniProt Q9Y271); assay: Human cysteinyl leukotriene receptor 1 (CysLT1) radioligand binding assay; conditions: 10 μM concentration; CHO-K1 cells
T2 construct: expressed in transfected cells; host or cells: CHO-K1
T2 sequence (Q9Y271 1-337): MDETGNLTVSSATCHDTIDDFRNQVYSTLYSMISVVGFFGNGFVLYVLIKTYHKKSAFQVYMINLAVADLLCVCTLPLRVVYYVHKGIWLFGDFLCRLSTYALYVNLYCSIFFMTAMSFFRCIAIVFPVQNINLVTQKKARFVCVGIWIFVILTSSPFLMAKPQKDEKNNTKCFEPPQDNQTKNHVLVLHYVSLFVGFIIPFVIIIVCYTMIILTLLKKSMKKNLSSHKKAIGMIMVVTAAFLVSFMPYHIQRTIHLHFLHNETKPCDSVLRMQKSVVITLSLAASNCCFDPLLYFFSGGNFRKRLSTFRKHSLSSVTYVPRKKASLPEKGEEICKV
Experimental: as §1
CysLT1 receptor is involved in immune diseases such as asthma, and has clinical significance as a point of intervention in asthma therapy. CysLT1 receptor is expressed in CHO-K1 cells (Chinese hamster ovary cells K1 clone). This is a competitive radioligand binding assay where substances compete with [^3H]-labeled Leulcotirene D4 (LTD4). Radioactive substance is measured with scintillation counting. Percentage of inhibition is calculated from the total radioactivity of the sample.

Balb/cJ mice = assay: LPS induced pulmonary neutrophilia in mice; format: in vivo, mouse; conditions: LPS challenged mice; i.n., i.p. or per os
Experimental: Male Balb/cJ mice (Iffa Credo, France) weighing ˜25 g are randomly grouped into a negative control group, positive control group and groups treated with compounds to be assayed). Test compounds, as well as vehicle (DMSO+0.5% methyl-cellulose) (all from Sigma), are administered i.n., ip. or per os two hours prior to administration of lipopolysaccharide (LPS) (E. coli, serotype 0111:B4, Sigma) or two hours prior and two hours after administration of LPS. Test compounds are administered at a single dose (two hours prior the challenge) or divided into two doses (two hours prior and two hours after the challenge). LPS solution in phosphate buffered saline (PBS) (Sigma) is administered intranasally in volume of 60 μL at concentration of 33,33 μg/mL, to all experimental groups except the negative control group, which received the same volume (60 μL) of vehicle PBS. During the challenge, animals were anaesthetized by using intraperitoneal anaesthesia. Animals are euthanized by i.p. anesthesia overdose approximately 24 hours after application of LPS to obtain bronchoalveolar lavage fluid (BALF), which is used to determine total protein concentration as well as concentrations of cytokines, such as IL-1β and TNF-α, absolute number of cells, and percentage of neutrophils in BALF. Bronchoalveolar lavage (BAL) is performed by infusing 1 mL of PBS divided into 3 separate volumes (0.4, 0.3 and 0.3 ml) through trachea into the lungs. The fluid is immediately withdrawn and the cell suspension stored into previously prepared 1.5 mL Eppendorf tube. Bronchoalveolar lavage fluid (BALF) is then centrifuged at […] for 5 min (4° C.). Cells are resuspended in 700 μL of PBS. To prepare cytospins, 320 μL of suspension is centrifuged at 250 rpm for 10 min (Cytospin-3, Shandon Instruments). Cells are stained with Dif-Quik (Dade Behring) to determine percentage of neutrophils by counting of at least 200 cells. The remaining resuspended cells are used for total cell count in BALF analysis (Sysmex SF 3000). […] Accumulation of granulocytes and mononuclear cells in peribronclhial (PB) and perivascular (PV) lung tissue areas and alveolar spaces is monitored.
Results can be expressed as (I) decrease of absolute cell number per mL in BALF, (II) decrease of number of neutrophils per mL in BALF, (III) reduction of relative number (percentage) of neutrophils in BALF, (IV) reduction of cytokine concentrations in BALF, as well as (V) suppression of accumulation of granulocytes and mononuclear cells in peribronchial (PB) and perivascular (PV) lung tissue areas and in alveolar spaces by pathohistological scoring of treated animals compared to positive control (LPS stimulated, but untreated animals).

[1] = system: Human prostanoid receptor; assay: Human prostanoid receptor assay ([3H]-PGD2 competition); format: binding; conditions: 10 μM concentration; CHO-K1
Experimental: as §1
Human prostanoid receptor is expressed in Chinese hamster ovary cell line, clone K1 (CHO-K1). Substances and radioactive competitor (tritium labelled Prostaglandin D2 in 1.7 nM concentration) are incubated with cells in HEPES buffer for 2 hours at 25° C. in the presence of manganese ions. Level of the bound PGD2 is measured by scintillation counting, and competition is calculated from comparing the total amount of the bound PGD2 in treated versus control cells. Prostanoids are involved in many physiological and pathological processes, from inflammation to pain.

Structure (SMILES) | TxA2 receptor, competition with SQ-29548 (TxA2 receptor) | CysLT1 receptor, competition with [3H]-LTD4 (CysLT1 receptor) | reduction of percentage of neutrophils and/or their total number in BALF and/or by histological scoring (Balb/cJ mice) | human prostanoid receptor, competition with tritium labelled PGD2 [1]
CC(=O)C(c1c(O)c2cccc(C(C)C)c2oc1=O)c1c(O)c2cccc(C(C)C)c2oc1=O [Example 19] | significantly relevant activity | significantly relevant activity | statistically significant reduction | significantly relevant activity
CC(C)c1cccc2c(O)c(C(CO)c3c(O)c4cccc(C(C)C)c4oc3=O)c(=O)oc12 [Example 30] | significantly relevant activity | significantly relevant activity | statistically significant reduction | significantly relevant activity
CC(C)c1cccc2c(O)c(C(C(=O)OCCO)c3c(O)c4cccc(C(C)C)c4oc3=O)c(=O)oc12 [Example 50] | significantly relevant activity | significantly relevant activity | statistically significant reduction | significantly relevant activity
